In assay [1] the test system is Streptococcus pyogenes. Description: Antibaterial activity against Streptococcus pyogenes assessed as lowest dose required to total inhibition of bacterial growth. It counts as functional.
In assay [2] the test system is Microsporum canis. The experiment in a line: Antifungal activity against Microsporum canis assessed as lowest dose required to total inhibition of fungal growth. It counts as functional.
Assay [3] relates to Cryptococcus neoformans. Description: Antifungal activity against Cryptococcus neoformans assessed as lowest dose required to total inhibition of fungal growth. It counts as functional.
Assay [4] deals with Sporothrix schenckii. The experiment in a line: Antifungal activity against Sporothrix schenckii assessed as lowest dose required to total inhibition of fungal growth. It counts as functional.
Assay [5] relates to Trichophyton rubrum. Description: Antifungal activity against Trichophyton rubrum assessed as lowest dose required to total inhibition of fungal growth. It counts as functional.
Assay [6] has as its system Phialophora verrucosa. The experiment in a line: Antifungal activity against Phialophora verrucosa assessed as lowest dose required to total inhibition of fungal growth. It counts as functional.
The test system of assay [7] is Staphylococcus haemolyticus. The experiment in a line: Antibaterial activity against Staphylococcus haemolyticus assessed as lowest dose required to total inhibition of bacterial growth. It counts as functional.
Assay [8] relates to Saprolegnia. Description: Antifungal activity against Saprolegnia species assessed as lowest dose required to total inhibition of fungal growth. The class given is functional.
The test system of assay [9] is Aspergillus fumigatus. The experiment in a line: Antifungal activity against Aspergillus fumigatus assessed as lowest dose required to total inhibition of fungal growth. The class given is functional.
In assay [10] the test system is Trichophyton mentagrophytes. The experiment in a line: Antifungal activity against Trichophyton mentagrophytes assessed as lowest dose required to total inhibition of fungal growth. It counts as functional.
Assay [11] deals with Candida albicans. Description: Antifungal activity against Candida albicans assessed as lowest dose required to total inhibition of fungal growth. The class given is functional.
The subject of assay [12] is Erysipelothrix rhusiopathiae. Description: Antibaterial activity against Erysipelothrix insidiosa assessed as lowest dose required to total inhibition of bacterial growth. It counts as functional.
For assay [13], the system named is Mucor. Description: Antifungal activity against Mucor species assessed as lowest dose required to total inhibition of fungal growth. It counts as functional.
Assay [14] has as its system Candida tropicalis. The experiment in a line: Antifungal activity against Candida tropicalis assessed as lowest dose required to total inhibition of fungal growth. It counts as functional.
Assay [15] relates to Candida albicans. The experiment in a line: Antifungal activity against Candida albicans infected in guinea pig at 10 mg/kg, po qd. The class given is functional, organism-based. More on the design: dose 10 mg/kg.

Molecules are shown by their SMILES. The source made the active and inactive calls. The rule behind the calls is not given here.

Regarding `Clc1ccc(OCCC(Cn2ccnc2)c2ccc(Cl)cc2Cl)cc1.O=[N+]([O-])O` (stereo not drawn), the GI in assay [1] is less than 1 µg/mL; in assay [2] it was 10 µg/mL; in [3] it was less than 1 µg/mL; in [4], 10 µg/mL; in [5], less than 1 µg/mL; in assay [6], 100 µg/mL. The GI in assay [7] was 1 µg/mL; in assay [8], 10 µg/mL; in assay [9] it was 100 µg/mL; in [10] it was less than 1 µg/mL; in assay [11] it was 10 µg/mL; in assay [12], less than 1 µg/mL. Moreover, the GI in [13] is 10 µg/mL; in assay [14], more than 100 µg/mL.
As for `Clc1ccc(OCCCC(Cn2ccnc2)c2ccc(Cl)cc2Cl)cc1.O=C(O)C(=O)O` (stereo not drawn), the result in assay [15] was inactive. In addition, the GI is less than 1 µg/mL in assay [1]; 10 µg/mL in assay [2]; 10 µg/mL in [3]; less than 1 µg/mL in [4]; less than 1 µg/mL in assay [5]; 100 µg/mL in assay [6]. Also, the GI in [7] is 1 µg/mL; in assay [8], 10 µg/mL; in assay [9] it was 100 µg/mL; in assay [10], less than 1 µg/mL; in assay [11], more than 100 µg/mL; in assay [12], less than 1 µg/mL. Moreover, the GI in [13] and in assay [14] was more than 100 µg/mL in each case.
For the molecule `COc1ccc(OCCC(Cn2ccnc2)c2ccc(Cl)cc2Cl)cc1.O=[N+]([O-])O` (stereo not drawn), the GI is less than 1 µg/mL in assay [1]; 10 µg/mL in assay [2]; less than 1 µg/mL in [3]; 10 µg/mL in assay [4]; less than 1 µg/mL in assay [5]; 10 µg/mL in assay [6]. In addition, the GI in assay [7] is 10 µg/mL; in assay [8], less than 1 µg/mL; in assay [9] it was 100 µg/mL; in assay [10] it was less than 1 µg/mL; in assay [11], 100 µg/mL; in assay [12] it was less than 1 µg/mL. Moreover, the GI in assay [13] was 100 µg/mL; in [14] it was more than 100 µg/mL.
Regarding `Clc1ccc(C(COc2ccc(Cl)cc2Cl)Cn2ccnc2)cc1.O=[N+]([O-])O` (stereo not drawn), the GI is less than 1 µg/mL in [1]; 10 µg/mL in [2]; less than 1 µg/mL in [3]; 10 µg/mL in assay [4]; less than 1 µg/mL in assay [5]; 100 µg/mL in assay [6]. For the same molecule, the GI in [7] is 10 µg/mL; in [8], more than 100 µg/mL; in assay [9], 100 µg/mL; in assay [10], less than 1 µg/mL; in assay [11], 10 µg/mL; in assay [12], 1 µg/mL. Besides, the GI in [13] and in assay [14] was more than 100 µg/mL throughout.
`COc1ccc(OCCCC(Cn2ccnc2)c2ccc(Cl)cc2Cl)cc1.O=C(O)C(=O)O` (stereo not drawn): the GI in assay [1] is less than 1 µg/mL; in assay [2], 10 µg/mL; in [3] it was less than 1 µg/mL; in [4], less than 1 µg/mL; in assay [5] it was less than 1 µg/mL; in [6], 10 µg/mL. Also, the GI in [7] is 100 µg/mL; in assay [8], less than 1 µg/mL; in assay [9] it was 10 µg/mL; in [10] it was less than 1 µg/mL; in assay [11] it was 10 µg/mL; in [12], less than 1 µg/mL. Also, the GI in assay [13] is 100 µg/mL; in assay [14], more than 100 µg/mL.
Take `Clc1ccc(OCC(Cn2ccnc2)c2ccc(Cl)cc2Cl)cc1.O=[N+]([O-])O` (stereo not drawn): the GI in [1] was less than 1 µg/mL; in assay [2], 10 µg/mL; in assay [3], less than 1 µg/mL; in assay [4], 10 µg/mL; in assay [5], less than 1 µg/mL; in [6] it was 10 µg/mL. The GI in assay [7] was 10 µg/mL; in assay [8] it was 100 µg/mL; in assay [9], 10 µg/mL; in [10], less than 1 µg/mL; in assay [11], 10 µg/mL; in assay [12] it was less than 1 µg/mL. Moreover, the GI in assay [13] is 100 µg/mL; in assay [14], more than 100 µg/mL.
With `Clc1ccc(COC(Cn2ccnc2)c2ccc(Cl)cc2Cl)c(Cl)c1` (stereo not drawn) [MICONAZOLE], the GI was less than 1 µg/mL in [1]; 1 µg/mL in assay [2]; 1 µg/mL in [3]; 1 µg/mL in assay [4]; less than 1 µg/mL in assay [5]; 100 µg/mL in [6]. The GI is 10 µg/mL in assay [7]; 10 µg/mL in [8]; 10 µg/mL in assay [9]; less than 1 µg/mL in assay [10]; 10 µg/mL in [11]; less than 1 µg/mL in [12]. In addition, the GI in assay [13] was more than 100 µg/mL; in [14], 100 µg/mL.
As for `Fc1ccc(OCCCC(Cn2ccnc2)c2ccc(Cl)cc2Cl)cc1.O=C(O)C(=O)O` (stereo not drawn), the GI was 1 µg/mL in assay [1]; less than 1 µg/mL in assay [2]; less than 1 µg/mL in assay [3]; less than 1 µg/mL in assay [4]; less than 1 µg/mL in [5]; 100 µg/mL in assay [6]. Further, the GI is 10 µg/mL in [7]; 10 µg/mL in assay [8]; 100 µg/mL in assay [9]; less than 1 µg/mL in assay [10]; more than 100 µg/mL in assay [11]; 1 µg/mL in assay [12]. The GI in [13] and in assay [14] was more than 100 µg/mL throughout.
`Clc1ccc(OCC(Cn2ccnc2)c2ccc(Cl)cc2)cc1.O=[N+]([O-])O` (stereo not drawn): the GI in assay [1] was less than 1 µg/mL; in [2], less than 1 µg/mL; in [3], less than 1 µg/mL; in [4], 10 µg/mL; in assay [5], less than 1 µg/mL; in assay [6], 100 µg/mL. Besides, the GI in assay [7] was 10 µg/mL; in assay [8] it was 100 µg/mL; in assay [9], 100 µg/mL; in [10] it was less than 1 µg/mL; in assay [11], more than 100 µg/mL; in assay [12], 1 µg/mL. Besides, the GI in assay [13] was 10 µg/mL; in [14], more than 100 µg/mL.
Turning to `Clc1ccc(C(COc2ccccc2Cl)Cn2ccnc2)cc1.O=[N+]([O-])O` (stereo not drawn), the GI was 1 µg/mL in [1]; 100 µg/mL in assay [2]; less than 1 µg/mL in [3]; 10 µg/mL in assay [4]; 10 µg/mL in assay [5]; more than 100 µg/mL in [6]. Moreover, the GI was 10 µg/mL in assay [7]; more than 100 µg/mL in assay [8]; more than 100 µg/mL in assay [9]; less than 1 µg/mL in assay [10]; 100 µg/mL in assay [11]; 1 µg/mL in assay [12]. Also, the values for the GI in [13] and in assay [14] were 100 µg/mL and more than 100 µg/mL, respectively.
Regarding `Clc1ccc(C(COc2ccc(Br)cc2)Cn2ccnc2)c(Cl)c1.O=[N+]([O-])O` (stereo not drawn), the GI is less than 1 µg/mL in [1]; less than 1 µg/mL in [2]; less than 1 µg/mL in [3]; 100 µg/mL in assay [4]; less than 1 µg/mL in assay [5]; 100 µg/mL in assay [6]. Moreover, the GI was 10 µg/mL in assay [7]; 100 µg/mL in assay [8]; 100 µg/mL in assay [9]; less than 1 µg/mL in assay [10]; 100 µg/mL in assay [11]; less than 1 µg/mL in assay [12]. Besides, the GI in assay [13] was 100 µg/mL; in [14], more than 100 µg/mL.
For `Clc1ccc(C(CCCOc2ccccc2)Cn2ccnc2)c(Cl)c1.O=C(O)C(=O)O` (stereo not drawn), the GI in assay [1] is less than 1 µg/mL; in [2], 10 µg/mL; in [3], less than 1 µg/mL; in [4], less than 1 µg/mL; in [5], less than 1 µg/mL; in [6] it was 10 µg/mL. In addition, the GI in assay [7] was 10 µg/mL; in assay [8], 10 µg/mL; in [9], 10 µg/mL; in [10], less than 1 µg/mL; in assay [11], more than 100 µg/mL; in assay [12], less than 1 µg/mL. The GI in assay [13] and in assay [14] was more than 100 µg/mL each time.
Turning to `Clc1ccc(OCC(Cn2ccnc2)c2ccc(Cl)cc2Cl)c(Cl)c1.O=[N+]([O-])O` (stereo not drawn), the GI was less than 1 µg/mL in [1]; less than 1 µg/mL in [2]; less than 1 µg/mL in [3]; less than 1 µg/mL in [4]; less than 1 µg/mL in assay [5]; 100 µg/mL in assay [6]. The GI is 1 µg/mL in assay [7]; more than 100 µg/mL in assay [8]; more than 100 µg/mL in assay [9]; less than 1 µg/mL in assay [10]; more than 100 µg/mL in assay [11]; less than 1 µg/mL in assay [12]. The GI in [13] and in assay [14] was more than 100 µg/mL each time.

(Values after ChEMBL document CHEMBL3272010, “Antimycotic imidazoles. 3. Synthesis and antimycotic properties of 1-[2-(aryloxyalkyl)-2-phenylethyl]-1H-imidazoles” (1977).)
